Measured values: the NIST ThermoML archive (doi:10.1016/j.fluid.2014.05.021)
± gives the expanded uncertainty stated by the source.

Details: 101.33 kPa, Liquid, Vibrating tube method

| SMILES | mass density (278.15 K) | mass density (283.15 K) | mass density (288.15 K) | mass density (293.15 K) | mass density (298.15 K) | mass density (303.15 K) | mass density (308.15 K) | mass density (313.15 K) | mass density (318.15 K) | mass density (323.15 K) | mass density (328.15 K) | mass density (333.15 K) | mass density (338.15 K) | mass density (343.15 K) | mass density (348.15 K) | mass density (353.15 K) |
| --- | --- | --- | --- | --- | --- | --- | --- | --- | --- | --- | --- | --- | --- | --- | --- | --- |
| CCN(CC)c1c(N(CC)CC)[c+]1N(CC)CC.N#C[N-]C#N [1,2,3-tris(diethylamino)-cyclopropenylium dicyanoamide] | 1016.38 ± 1.9 kg/m3 | 1013.27 ± 1.9 kg/m3 | 1010.14 ± 1.9 kg/m3 | 1007 ± 1.9 kg/m3 | 1003.91 ± 1.9 kg/m3 | 1000.79 ± 1.9 kg/m3 | 997.7 ± 1.9 kg/m3 | 994.62 ± 1.9 kg/m3 | 991.55 ± 1.9 kg/m3 | 988.5 ± 1.9 kg/m3 | 985.46 ± 1.8 kg/m3 | 982.43 ± 1.8 kg/m3 | 979.41 ± 1.8 kg/m3 | 976.41 ± 1.8 kg/m3 | 973.4 ± 1.8 kg/m3 | 970.42 ± 1.8 kg/m3 |
| CCC[N+](C)(C)CC.O=S(=O)([N-]S(=O)(=O)C(F)(F)F)C(F)(F)F | 1420.02 ± 0.63 kg/m3 | 1415.26 ± 0.62 kg/m3 | 1410.6 ± 0.62 kg/m3 | 1405.96 ± 0.61 kg/m3 | 1401.26 ± 0.61 kg/m3 | 1396.46 ± 0.6 kg/m3 | 1391.81 ± 0.6 kg/m3 | 1387.91 ± 0.59 kg/m3 | 1383.36 ± 0.59 kg/m3 | 1379.82 ± 0.58 kg/m3 | 1375.4 ± 0.6 kg/m3 | 1370.97 ± 0.58 kg/m3 | 1366.49 ± 0.58 kg/m3 | 1361.67 ± 0.57 kg/m3 | 1357.66 ± 0.56 kg/m3 | 1353.3 ± 0.56 kg/m3 |
